{
  "source": "patent US20210324434A1",
  "about": "“METHOD FOR PRODUCING RARE SUGAR-CONTAINING COMPOSITION AND RARE SUGAR-CONTAINING COMPOSITION” (NATIONAL UNIVERSITY CORPORATION KAGAWA UNIVERSITY, priority 2018, published 2021)",
  "origin": "cited, not measured here",
  "key": {"[1]": {"conditions": "relative to sugar"}, "[2]": {"conditions": "already known"}},
  "data": [
    {"compound": "O=C(CO)[C@@H](O)[C@H](O)[C@H](O)CO", "note": "[D-fructose]", "values": [
      {"measurement": "sweetness intensity, % of that of sugar", "setting": "[1]", "value": "about 170%"}
    ]},
    {"compound": "O=C[C@H](O)[C@@H](O)[C@H](O)[C@H](O)CO", "note": "[D-glucose]", "values": [
      {"measurement": "sweetness intensity, % of that of sugar", "setting": "[1]", "value": "about 70%"}
    ]},
    {"compound": "O=C(CO)[C@H](O)[C@H](O)[C@H](O)CO", "note": "[D-psicose]", "values": [
      {"measurement": "result of an acute oral toxicity test", "setting": "[2]", "value": "≥ 5,000 mg/kg"},
      {"measurement": "sweetness intensity, % of that of sugar", "setting": "[1]", "value": "about 70%"}
    ]}
  ]
}
